The values that follow are results of earlier work, collected in publication PMC3828007 (CPT: Pharmacometrics & Systems Pharmacology, 2013).

As usually defined, the EC50 is the concentration at which the effect is half-maximal.

Molecules are shown by their SMILES.

One data set has as its system NET (plasma DHPG). To be noted: read-out: in vivo EC50 for inhibitory effect on plasma DHPG.

As for `CNCC[C@H](Oc1cccc2ccccc12)c1cccs1` [duloxetine], the EC50 with NET (plasma DHPG) was […].

Regarding `COc1ccc(C(CN(C)C)C2(O)CCCCC2)cc1` (centres unmarked) [venlafaxine], in the data set with CYP, the CYP inhibition liability entry is “moderate”.
